Experimental data reported in patent US6214859A, “Ethylamine derivatives” (Fujimoto Brothers Co., Ltd., priority 1997, dated 2001).

What was measured:
[1] = test system: dopamine release, substantia nigra; assay: Release of biogenic amines from brain tissue: dopamine, substantia nigra; format: in vivo, Wistar rats
Procedure: (§1) The method described in Life Sci., 56, 611-620 (1995) was used. After Wistar rats were decapitated, appropriate brain samples, which were striatun, substantia nigra, tuberculum olfactorium, locus coeruleus and raphe, were removed quickly and soaked in oxygenated (95% O2 and 5% CO2) Krebs solution at 37° C. The composition of Krebs solution was as follows in […]: NaCl 111, KCl 4.7, CaCl2 2.5, MgSO4 1.64, NaHCO3 25, KH2 PO4 1.2, glucose 11, 50 mg/l ascorbic add and 20 mg/l EDTA-2 Na. The preparations, soaked in one organ bath, were as follows: 1) four pieces of striatum (each halved), 2) four pieces of substantia nigra, 3) four pieces of tuberculum olfactorium; 4) eight pieces of locus coeruleus; 5) eight pieces of raphe. After incubation of the appropriate tissue for 20 min, the Krebs solution was replaced, the tissue soaked for 20 min in Krebs solution dissolving the compounds of this invention and the amount of biogenic amine released during this period of time was estimate. The compounds of this invention and PPAP, control compound, were dissolved in saline and were administered subcutaneously before 30 min to removing brain sample. For measuring noradrenaline and dopamine, samples were purified on 60 mg alumina containing micro columns (BDH Chemicals Ltd.) according to the method described in J. Pharmacol. Exp. Ther., 138, 360-372 (1962) For measuring serotonin, samples were purified on 15 mg Sephadex G-10 micro columns (Pharmacia). Dopamine, noradrenaline and serotonin were determined by high performance liquid chromatography (Waters 746 data module) with electrochemical detection (Waters 460 electrochemical detector). Waters Resolve 5μ Spherical C18 3.9×150 mm column was used as separating column and triethylamine-phosphate buffer (pH 5.2), containing 200 mg/l octane sulfonate sodium and 18 mg/l EDTA-2 Na with 6% acetonitrile, was used as mobile phase. The release amount of appropriate amine was noted as nmol/g tissue released for 20 min. deference of means tested by Student's t-test and significant level was set at P<.05.

[2] = test system: dopamine release, striatum; assay: Release of biogenic amines from brain tissue: dopamine, striatum; format: in vivo, Wistar rats
Procedure: as §1

[3] = target: T1, human platelet MAO-B (Homo sapiens, UniProt P27338); assay: biochemical; conditions: 10^-5 M; read-out: Inhibition rate of MAO-B
T1 construct: The suspension was used as enzyme for MAO activity assay in blood platelets; from tissue; host or cells: human blood platelets (frozen, thawed and sonicated platelet rich plasma)
T1 sequence (P27338 1-520): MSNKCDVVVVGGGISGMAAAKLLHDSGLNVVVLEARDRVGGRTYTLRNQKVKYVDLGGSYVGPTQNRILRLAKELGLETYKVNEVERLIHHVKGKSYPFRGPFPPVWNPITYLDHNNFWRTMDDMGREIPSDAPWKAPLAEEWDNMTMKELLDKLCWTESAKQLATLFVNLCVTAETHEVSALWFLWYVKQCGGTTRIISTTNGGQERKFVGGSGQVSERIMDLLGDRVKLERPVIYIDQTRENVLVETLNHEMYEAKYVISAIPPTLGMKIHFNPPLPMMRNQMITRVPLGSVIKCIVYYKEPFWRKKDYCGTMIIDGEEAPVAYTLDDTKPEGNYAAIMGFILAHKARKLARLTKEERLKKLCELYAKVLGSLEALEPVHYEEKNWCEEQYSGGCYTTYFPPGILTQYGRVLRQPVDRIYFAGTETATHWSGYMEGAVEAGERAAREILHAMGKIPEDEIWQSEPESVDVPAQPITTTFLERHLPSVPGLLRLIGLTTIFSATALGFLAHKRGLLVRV
Procedure: Human blood added with 3.8% citric acid was centrifuged at 950 rpm for 10 min and platelet rich plasma (PRP) was obtained. The residual blood cell was centrifuged at 3,000 rpm for 10 min and platelet poor plasma (PPP) was obtained. After blood platelets were measured from a part of PRP, PRP and PPP were frozen at -20° C. They were thawed and were sonicated to be dispersed and suspended when MAO activity was measured. The suspension was used as enzyme for MAO activity assay in blood platelets. In addition, almost all of MAO in blood platelets have been known to be B type.
MAO-B activity was determined according to the method described in Biochem. Pharmacol., 14, 1684-1685 (1965). […] The mixture was incubated at 37° C. for 5 min. After 80 μl of PRP or PPP was added to it, the mixture was incubated at 37° C. for 20 min. Thereafter, 120 μl of substrate (0.33 mg/ml kynuramine dihydrobromide) was added thereto. After incubation at 37° C. for 30 min, 800 μl of 10% trichloroacetic acid were added to stop the reaction and the solution was centrifuged at 3,000 rpm for 10 min. To 1 ml of the supernatant, 2 ml of 1 N NaOH was added and fluorescence of the solution was measured at Ex 312 nm and Em 380 nm. PRP was prepared to 250,000 cell/μl as amounts of blood platelets with […] phosphate buffer solution and 4-hydroxyquinoline was used as standard for measurement.

[4] = test system: dopamine release, tuberculum olfactorium; assay: Release of biogenic amines from brain tissue: dopamine, tuberculum olfactorium; format: in vivo, Wistar rats
Procedure: as §1

[5] = test system: serotonin release, raphe; assay: Release of biogenic amines from brain tissue: serotonin, raphe; format: in vivo, Wistar rats
Procedure: as §1

[6] = Toxicity screening using primary cultured hepatocyte (LDH release); format: cell-based, rat; conditions: rat, primary hepatocytes, 24 hr, control 0.5% saline or 0.5% DMSO, read-out: Percent control of LDH release
Procedure: The hepatocytes was prepared from rat liver by collagenase perfusion method and suspension containing 5×10^5 cells/ml were prepared. After cultivation for 24 hr, the suspension was exchanged to the William's Medium E (GIBCO BRL) containing 10 or 100 μM of the compounds of this invention. After cultivation for 24 hr, the activity of lactate dehydrogenase (LDH) released in the medium was measured.

[7] = test system: noradrenaline release, locus coeruleus; assay: Release of biogenic amines from brain tissue: noradrenaline, locus coeruleus; format: in vivo, Wistar rats
Procedure: as §1

[8] = test system: rats reduced learning ability by tetrabenazine; assay: Conditioned avoidance task in the shuttle box (tetrabenazine-treated rats); format: in vivo, rat; conditions: tetrabenazine 1 mg/kg s.c., significance and direction
Procedure: The method described in Life Sci., 58, 817-827 (1996) was used. The effects on conditioned avoidance reflex (CARs) was analyzed in the shuttle box using male and female rats (weighing 200-220 g) whose leaning abilities were reduced by treatment of tetrabenazine. The instrument was constructed, according to the device described in Psychopharmacologia 10, 1-5 (1966) by the Research Institute for Electrical Industry (Budapest, Hungary). The male and female rats (weighing 200-220 g) were trained to cross the berrier under the influence of a conditioned stimulus (CS) (light flash and buzzer sounds). […] And the performance which was not related to this condition was noted as an intersignal reaction (IR). The rats were trained with 100 trials per day for 5 days. One trial consisted of 15 sec intertrial interval. The saline solution of tetrabenazine was administered at a dose of 1 mg/kg subcutaneously before one hour prior to the test and then the solution of the compounds of this invention were administered at the doses of 1, 2, 2.5 and 5 mg/kg subcutaneously with the simultaneous administration of tetrabenazine. The nmbers of CARs, EFs and IRs were automatically counted and evaluated by multi-way analysis of variance (ANOVA).

SMILES | Release of dopamine, substantia nigra ([1]; 0.25 mg/kg s.c.) | Release of dopamine, substantia nigra ([1]; 1.00 mg/kg s.c.) | Release of dopamine, striatum ([2]; 0.25 mg/kg s.c.) | Release of dopamine, striatum ([2]; 1.00 mg/kg s.c.) | inhibition at 10 µM [3] | Release of dopamine, tuberculum olfactorium ([4]; 0.25 mg/kg s.c.) | Release of dopamine, tuberculum olfactorium ([4]; 1.00 mg/kg s.c.) | Release of serotonin, raphe ([5]; 0.25 mg/kg s.c.) | Release of serotonin, raphe ([5]; 1.00 mg/kg s.c.) | activity at 24 h, 10 µM [6] | activity at 24 h, 100 µM [6] | Release of noradrenaline, locus coeruleus ([7]; 0.25 mg/kg s.c.) | Release of noradrenaline, locus coeruleus ([7]; 1.00 mg/kg s.c.) | Condition Avoidance Reflex (CARs) ([8]; 1 mg/kg s.c.) | Condition Avoidance Reflex (CARs) ([8]; 5 mg/kg s.c.) | Escape Failures (EFs) ([8]; 5 mg/kg s.c.) | also measured
CCCNC(CCC)Cc1cccc2ccccc12 (stereo not shown) [Compound No. 5, 1-(1-Naphthyl)-2-propylaminopentane] | 5.6 ± 0.18 nmol/g tissue, for 20 min | 4.4 ± 0.16 nmol/g tissue, for 20 min | 4.3 ± 0.14 nmol/g tissue, for 20 min | 3.2 ± 0.14 nmol/g tissue, for 20 min | 17.3% | 6.0 ± 0.16 nmol/g tissue, for 20 min | 4.6 ± 0.13 nmol/g tissue, for 20 min | 0.425 ± 0.02 nmol/g tissue, for 20 min | 0.571 ± 0.01 nmol/g tissue, for 20 min | 111 ± 4.02% | 195 ± 9.16% | 3.9 ± 0.25 nmol/g tissue, for 20 min | 4.4 ± 0.50 nmol/g tissue, for 20 min |  |  |  | 
CCCC(Cc1ccc2ccccc2c1)NCC (stereo not shown) [Compound No. 6] |  | 6.7 ± 0.26 nmol/g tissue, for 20 min |  | 3.6 ± 0.12 nmol/g tissue, for 20 min | 24.5% |  | 5.3 ± 0.19 nmol/g tissue, for 20 min |  | 0.708 ± 0.07 nmol/g tissue, for 20 min |  |  |  | 3.1 ± 0.05 nmol/g tissue, for 20 min | **** .Arrow-up bold. | **** .Arrow-up bold. | * .dwnarw. | Escape Failures (EFs) ([8]; 1 mg/kg s.c.): * .dwnarw.
CCCNC(CCC)Cc1cccc2c1OCO2.Cl (stereo not shown) [Compound No. 28, 1-(1,3-Benzodioxol-4-yl)-2-propylaminopentane Hydrochloride] | 6.1 ± 0.35 nmol/g tissue, for 20 min | 5.4 ± 0.27 nmol/g tissue, for 20 min | 3.4 ± 0.16 nmol/g tissue, for 20 min | 4.0 ± 0.18 nmol/g tissue, for 20 min | 22.2% | 3.8 ± 0.22 nmol/g tissue, for 20 min | 4.6 ± 0.22 nmol/g tissue, for 20 min | 1.031 ± 0.03 nmol/g tissue, for 20 min | 1.017 ± 0.06 nmol/g tissue, for 20 min | 93 ± 6.92% | 148 ± 6.55% | 3.6 ± 0.35 nmol/g tissue, for 20 min | 3.7 ± 0.10 nmol/g tissue, for 20 min | * .Arrow-up bold. | **** .Arrow-up bold. | *** .dwnarw. | Condition Avoidance Reflex (CARs) ([8]; 2.5 mg/kg s.c.): **** .Arrow-up bold.; Escape Failures (EFs) ([8]; 2.5 mg/kg s.c.): **** .dwnarw.; Release of dopamine, substantia nigra ([1]; 5.00 mg/kg s.c.): 4.9 ± 0.17 nmol/g tissue, for 20 min; Release of dopamine, striatum ([2]; 5.00 mg/kg s.c.): 3.1 ± 0.13 nmol/g tissue, for 20 min; Release of dopamine, tuberculum olfactorium ([4]; 5.00 mg/kg s.c.): 3.1 ± 0.14 nmol/g tissue, for 20 min; Release of serotonin, raphe ([5]; 5.00 mg/kg s.c.): 1.436 ± 0.01 nmol/g tissue, for 20 min; Release of noradrenaline, locus coeruleus ([7]; 5.00 mg/kg s.c.): 3.9 ± 0.10 nmol/g tissue, for 20 min
